From patent US9580444B2, “Polycyclic pyrazolinone derivative and herbicide comprising same as effective component thereof” (priority 2013, dated 2017)

Key:
Format in all cases: in vivo
[1] = tested on: Chenopodium album (common lambsquarters); assay: Test Example-4: herbicidal effect by a foliage treatment after weeds are generated under upland field conditions; details: 500 g a.i/ha, foliage treatment after emergence, about 14 days after treatment, score 0-5
How it was run: (§1)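 Sown seeds, under about 0.5 cm of soil cover in upland soil, grew for 14 days before compound application. A wettable powder or emulsifiable concentrate, diluted to a predetermined dosage, was sprayed over foliage in 4000 L/ha water, with scoring on a 0–5 scale after roughly 14 days.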

[2] = tested on: Abutilon theophrasti (velvetleaf); assay: as above; details: 500 g a.i/ha, foliage treatment after emergence, about 14 days after treatment, score 0-5
How it was run: as §1

[3] = tested on: Amaranthus viridis (green amaranthus); assay: as above; details: 500 g a.i/ha, foliage treatment after emergence, about 14 days after treatment, score 0-5
How it was run: as §1

[4] = tested on: Echinochloa oryzicola (barnyard grass); assay: Test Example-1: herbicidal effect by a treatment before weeds are generated under submerged conditions; details: 500 g a.i/ha, pre-emergence treatment, about 15 days after treatment, score 0-5
How it was run: (§2)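 Treatment is made before weed emergence: seeds sit in puddled, submerged paddy soil and receive the diluted wettable powder or emulsifiable concentrate into the water at a fixed dosage. Rating on a 0–5 scale follows after around 15 days.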

[5] = tested on: other annual broad leaf weeds (Lindernia procumbens, Rotala indica, Elatine triandra); assay: as above; details: 500 g a.i/ha, pre-emergence treatment, about 15 days after treatment, score 0-5
How it was run: as §2

[6] = tested on: Monochoria vaginalis (monochoria); assay: as above; details: 500 g a.i/ha, pre-emergence treatment, about 15 days after treatment, score 0-5
How it was run: as §2

[7] = tested on: Eleocharis acicularis (needle spikerush); assay: as above; details: 500 g a.i/ha, pre-emergence treatment, about 15 days after treatment, score 0-5
How it was run: as §2

[8] = tested on: Cyperus difformis (smallflower umbrella plant); assay: as above; details: 500 g a.i/ha, pre-emergence treatment, about 15 days after treatment, score 0-5
How it was run: as §2

[9] = tested on: Scirpus juncoides (bulrush); assay: as above; details: 500 g a.i/ha, pre-emergence treatment, about 15 days after treatment, score 0-5
How it was run: as §2

corn = assay: Test Example-4: phytotoxicity by a foliage treatment after weeds are generated under upland field conditions; details: 500 g a.i/ha, foliage treatment after emergence, about 14 days after treatment, score 0-5
How it was run: as §1

Compound | Herbicidal effect Chenopodium album [1] | Herbicidal effect Abutilon theophrast [2] | Herbicidal effect Amaranthus viridis [3] | Herbicidal effect Echinochloa oryzicola [4] | Herbicidal effect Broadleaf weed [5] | Herbicidal effect Monochoria vaginalis [6] | Herbicidal effect Eleocharis acicularis [7] | Herbicidal effect Cyperus difformis [8] | Herbicidal effect Scirpus juncoides [9] | Phytotoxicity Corn (corn)
C#CCOc1cc(-c2c(F)n3n(c2=O)CCOCC3)c(Cl)cc1Cl [Example 1-364] | 5 (Herbicidal effect/phytotoxicity was 90% or greater) | 5 (Herbicidal effect/phytotoxicity was 90% or greater) | 5 (Herbicidal effect/phytotoxicity was 90% or greater) | 5 (Herbicidal effect/phytotoxicity was 90% or greater) | 5 (Herbicidal effect/phytotoxicity was 90% or greater) | 5 (Herbicidal effect/phytotoxicity was 90% or greater) | 5 (Herbicidal effect/phytotoxicity was 90% or greater) | 5 (Herbicidal effect/phytotoxicity was 90% or greater) | 5 (Herbicidal effect/phytotoxicity was 90% or greater) | 1 (Herbicidal effect/phytotoxicity was 10% to 30%)
O=c1c(-c2ccc(Cl)cc2F)c(Cl)n2n1CCCC2 [Example 1-125] | 5 (Herbicidal effect/phytotoxicity was 90% or greater) | 5 (Herbicidal effect/phytotoxicity was 90% or greater) | 5 (Herbicidal effect/phytotoxicity was 90% or greater) | 5 (Herbicidal effect/phytotoxicity was 90% or greater) | 5 (Herbicidal effect/phytotoxicity was 90% or greater) | 5 (Herbicidal effect/phytotoxicity was 90% or greater) | 5 (Herbicidal effect/phytotoxicity was 90% or greater) | 5 (Herbicidal effect/phytotoxicity was 90% or greater) | 5 (Herbicidal effect/phytotoxicity was 90% or greater) | 1 (Herbicidal effect/phytotoxicity was 10% to 30%)
C#CC(C)Oc1cc(-c2c(Cl)n3n(c2=O)CCCC3)c(F)cc1F (stereo not shown) [Example 1-114] | 5 (Herbicidal effect/phytotoxicity was 90% or greater) | 5 (Herbicidal effect/phytotoxicity was 90% or greater) | 5 (Herbicidal effect/phytotoxicity was 90% or greater) | 5 (Herbicidal effect/phytotoxicity was 90% or greater) | 5 (Herbicidal effect/phytotoxicity was 90% or greater) | 5 (Herbicidal effect/phytotoxicity was 90% or greater) | 5 (Herbicidal effect/phytotoxicity was 90% or greater) | 5 (Herbicidal effect/phytotoxicity was 90% or greater) | 5 (Herbicidal effect/phytotoxicity was 90% or greater) | 3 (Herbicidal effect/phytotoxicity was 50% to 70%)
C#CCOc1cc(-c2c(Cl)n3n(c2=O)CCCC3)ccc1Cl [Example 1-62] | 5 (Herbicidal effect/phytotoxicity was 90% or greater) | 5 (Herbicidal effect/phytotoxicity was 90% or greater) | 5 (Herbicidal effect/phytotoxicity was 90% or greater) | 5 (Herbicidal effect/phytotoxicity was 90% or greater) | 5 (Herbicidal effect/phytotoxicity was 90% or greater) | 5 (Herbicidal effect/phytotoxicity was 90% or greater) | 5 (Herbicidal effect/phytotoxicity was 90% or greater) | 5 (Herbicidal effect/phytotoxicity was 90% or greater) | 5 (Herbicidal effect/phytotoxicity was 90% or greater) | 0 (Herbicidal effect/phytotoxicity was 0% to 10%)
CC(C)COc1cc(-c2c(Cl)n3n(c2=O)CCCC3)c(F)cc1Cl [Example 1-156] | 5 (Herbicidal effect/phytotoxicity was 90% or greater) | 5 (Herbicidal effect/phytotoxicity was 90% or greater) | 5 (Herbicidal effect/phytotoxicity was 90% or greater) | 5 (Herbicidal effect/phytotoxicity was 90% or greater) | 5 (Herbicidal effect/phytotoxicity was 90% or greater) | 5 (Herbicidal effect/phytotoxicity was 90% or greater) | 5 (Herbicidal effect/phytotoxicity was 90% or greater) | 5 (Herbicidal effect/phytotoxicity was 90% or greater) | 5 (Herbicidal effect/phytotoxicity was 90% or greater) | 2 (Herbicidal effect/phytotoxicity was 30% to 50%)
CCOc1cc(-c2c(Cl)n3n(c2=O)CCCC3)c(F)cc1Cl [Example 1-146] | 5 (Herbicidal effect/phytotoxicity was 90% or greater) | 5 (Herbicidal effect/phytotoxicity was 90% or greater) | 5 (Herbicidal effect/phytotoxicity was 90% or greater) | 5 (Herbicidal effect/phytotoxicity was 90% or greater) | 5 (Herbicidal effect/phytotoxicity was 90% or greater) | 5 (Herbicidal effect/phytotoxicity was 90% or greater) | 5 (Herbicidal effect/phytotoxicity was 90% or greater) | 5 (Herbicidal effect/phytotoxicity was 90% or greater) | 5 (Herbicidal effect/phytotoxicity was 90% or greater) | 0 (Herbicidal effect/phytotoxicity was 0% to 10%)
C=CCOc1cc(-c2c(Cl)n3n(c2=O)CCCC3)c(F)cc1F [Example 1-101] | 5 (Herbicidal effect/phytotoxicity was 90% or greater) | 5 (Herbicidal effect/phytotoxicity was 90% or greater) | 5 (Herbicidal effect/phytotoxicity was 90% or greater) | 5 (Herbicidal effect/phytotoxicity was 90% or greater) | 5 (Herbicidal effect/phytotoxicity was 90% or greater) | 5 (Herbicidal effect/phytotoxicity was 90% or greater) | 5 (Herbicidal effect/phytotoxicity was 90% or greater) | 5 (Herbicidal effect/phytotoxicity was 90% or greater) | 5 (Herbicidal effect/phytotoxicity was 90% or greater) | 3 (Herbicidal effect/phytotoxicity was 50% to 70%)
C#CCOc1cc(-c2c(Cl)n3n(c2=O)CCCCC3)ccc1Cl [Example 1-63] | 5 (Herbicidal effect/phytotoxicity was 90% or greater) | 5 (Herbicidal effect/phytotoxicity was 90% or greater) | 5 (Herbicidal effect/phytotoxicity was 90% or greater) | 5 (Herbicidal effect/phytotoxicity was 90% or greater) | 5 (Herbicidal effect/phytotoxicity was 90% or greater) | 5 (Herbicidal effect/phytotoxicity was 90% or greater) | 5 (Herbicidal effect/phytotoxicity was 90% or greater) | 5 (Herbicidal effect/phytotoxicity was 90% or greater) | 5 (Herbicidal effect/phytotoxicity was 90% or greater) | 1 (Herbicidal effect/phytotoxicity was 10% to 30%)
CC=CCOc1cc(-c2c(Cl)n3n(c2=O)CCCC3)c(F)cc1Cl [Example 1-209] | 5 (Herbicidal effect/phytotoxicity was 90% or greater) | 5 (Herbicidal effect/phytotoxicity was 90% or greater) | 5 (Herbicidal effect/phytotoxicity was 90% or greater) | 5 (Herbicidal effect/phytotoxicity was 90% or greater) | 5 (Herbicidal effect/phytotoxicity was 90% or greater) | 5 (Herbicidal effect/phytotoxicity was 90% or greater) | 5 (Herbicidal effect/phytotoxicity was 90% or greater) | 5 (Herbicidal effect/phytotoxicity was 90% or greater) | 5 (Herbicidal effect/phytotoxicity was 90% or greater) | 2 (Herbicidal effect/phytotoxicity was 30% to 50%)
COc1cc(-c2c(Cl)n3n(c2=O)CCCC3)c(F)cc1F [Example 1-87] | 5 (Herbicidal effect/phytotoxicity was 90% or greater) | 5 (Herbicidal effect/phytotoxicity was 90% or greater) | 5 (Herbicidal effect/phytotoxicity was 90% or greater) | 5 (Herbicidal effect/phytotoxicity was 90% or greater) | 5 (Herbicidal effect/phytotoxicity was 90% or greater) | 5 (Herbicidal effect/phytotoxicity was 90% or greater) | 5 (Herbicidal effect/phytotoxicity was 90% or greater) | 5 (Herbicidal effect/phytotoxicity was 90% or greater) | 5 (Herbicidal effect/phytotoxicity was 90% or greater) | 2 (Herbicidal effect/phytotoxicity was 30% to 50%)
